From paper PMC6272778, “New Lignans and Iridoid Glycosides from Dipsacus asper Wall” (Molecules, 2015)

Biological target: T1, HIV-1 integrase (Human immunodeficiency virus type 1 group M subtype B, UniProt P04585)
T1 construct: pre-incubated with 15 pmol integrase (IN) at 37 °C
Assay: HIV-1 integrase strand transfer inhibition assay (microplate, magnetic beads)
Type: biochemical, human immunodeficiency virus-1 (HIV-1)
Details: for HIV-1 integrase inhibition activity (in words): qualitative summary of the integrase assay; for IC50: strand transfer reaction, microplate screening method, positive control baicalein, read-out: IC50, inhibition activity against HIV-1 integrase
Description: The assays were performed in a 96-well microplate (Corning, New York, NY, USA) in a final volume of 50 μL. The wells were washed once with the reaction buffer (25 mM/L PIPES, pH 7.0, 10 mM/L β-mercaptoethanol, 5% (w/v) glycerol, 0.1 g/L bovin serum albumin (BSA), and 10 mM/L MnCl2). The compounds were diluted with dimethyl sulfoxide (DMSO) to a final concentration of 10% DMSO into the reaction volume (v/v) and pre-incubated with 15 pmol integrase (IN) at 37 °C in the reaction buffer in the absence of MnCl2 (10 mM/L) for 10 min. Subsequently, 1.5 pM donor DNA and 15 pM target DNA were added and the reaction was initiated. After incubation for 1 h at 37 °C, […] magnetic particles (6.7 × 10^8 beads/mL) and 51.5 μL binding buffer (10 mM/L Tris–HCl, pH 7.6, 2 M/LNaCl, 20 mM/L ethylene diamine tetraacetic acid (EDTA), and 0.1% [w/v] Tween 20) were added and incubated at 20 °C for 15 min. Then the wells holding the mixture were placed in a magnetic concentrator, the supernatant was discarded, and the wells were washed 3 times with phosphate buffered saline (PBS) containing 0.1% Tween20(PBST). Subsequently, 100 μL of 1:5000 diluted alkaline phosphatase (AP) conjugate anti-DIG antibody was added and incubated for 30 min at 37 °C. Finally, the wells were washed 3 times with PBST and the magnetic beads were transferred into fresh wells; 100 μL P-nitrophenyl phosphate (P-NPP) substrate (0.1 M/L Na2CO3, pH 9.5, 6.7 mM/L P-NPP, and 2 mM/L MgCl2) was added. The plates were read at 405 nm with a Model 680 microplate reader (Bio-Rad, Hercules, CA, USA). In the assay, baicalein was used as the positive control.
The IC50 values of the samples were calculated based on the assay results after curve fitting according to a non-linear regression.

| SMILES | HIV-1 integrase inhibition activity (in words) | IC50 [µM] |
| --- | --- | --- |
| COc1cc([C@@H]2OC[C@@]3(O)[C@@H]2CO[C@H]3c2cc(OC)c(O)c(OC)c2)ccc1O [Compound 1, (+)-8-hydroxy-7,7'-bis-epi-fraxiresinol] | weak HIV-1 integrase inhibitory activities | 53.3 |
| COc1cc([C@@H]2OC[C@@]3(O)[C@@H]2CO[C@H]3c2ccc(O)c(OC)c2)ccc1O [Compound 2, (+)-8-hydroxy-7,7'-bis-epi-pinoresinol] | weak HIV-1 integrase inhibitory activities | 61.7 |
| C=CC1C(OC2OC(CO)C(O)C(O)C2O)OC=C(C(=O)OC2CC3C(C(=O)OC)=COC(OC4OC(CO)C(O)C(O)C4O)C3C2C)C1CC1OC(C)C(C)O1 (stereo not drawn) [Compound 7, dipsanoside M] | weak HIV-1 integrase inhibitory activities | 84 |
| C=CC1C(OC2OC(CO)C(O)C(O)C2O)OC=C(C(=O)OC2CC3C(C(=O)OC)=COC(OC4OC(CO)C(O)C(O)C4O)C3C2C)C1CC1OC(C)C(C)O1 (stereo not drawn) [Compound 8, dipsanosides N] | weak HIV-1 integrase inhibitory activities | 92.7 |
| O=c1cc(-c2ccccc2)oc2cc(O)c(O)c(O)c12 [baicalein, reference compound] | – | 1.37 |
